Laboratory results reported in patent US5608143A, “External regulation of gene expression” (E. I. Du Pont de Nemours and Company, priority 1994, dated 1997).

Tests used:
[1] = tested on: 2-2 gene (In 2-2 mRNA); assay: RNA slot blot / Northern analysis of 2-2 mRNA in roots of chemically treated corn; assay type: in vivo, corn (Missouri 17); design: In2-2 induction level: key to the marks not given beside the values
Description: Details of the techniques used to perform the procedures used in Example 2 are presented in Example 1. The cDNA library made using poly(A)^+ RNA from the roots of N-(aminocarbonyl)-2-chlorobenzenesulfonamide-treated Missouri 17 corn plants (described in Example 1) was analyzed for additional cDNA clones representing mRNAs induced by substituted benzenesulfonamides. […] This colony was designated In 2-2.
A small scale plasmid preparation was performed on the plasmid contained in colony In 2-2. This plasmid was designated pIn 2-2. An aliquot of pIn 2-2 was nick translated as described earlier. A slot blot containing total RNA from N-(aminocarbonyl)-2-chlorobenzenesulfonamide-treated and untreated roots was prepared and probed with nick-translated pIn 2-2 as described for pIn 2-1 in Example 1.
The pIn 2-2 small scale plasmid preparation was digested to completion with Pst I and analyzed by agarose gel electrophoresis. The cDNA insert of the plasmid was excised by Pst I as a single 1200 bp fragment. Nick-translatedpIn 2-2 was used to probe a Northern blot of RNA from both untreated and N-(aminocarbonyl)-2-chlorobenzenesulfonamide-treated roots.
The ability at various substituted benzenesulfonamides and related compound to induce the expression of the 2-1, 2-2, and 5-2 genes of Missouri 17 corn was evaluated. Corn seeds were germinated and grown hydroponically in 2 liter beakers as described in Example 1. On the tenth day, plants were transferred into fresh 0.5× Hoagland's solution containing the chemical to be tested. Root tissue was harvested from the plants after six hours of chemical treatment, quick-frozen by immersion in liquid N2, and stored at -80° C. until analyzed.
Details of the RNA isolation and slot blot analysis procedures are presented in Example 1. Total RNA was prepared from the root tissue of plants that had been treated with various chemicals using the previously described guanidine thiocyanate procedure. Replicate blots, each consisting of 2 μg of total RNA from tissues treated with each of the chemicals shown in tables 8 and 9, were prepared on nitrocellulose membranes using a Minifold II® Slot-blotter (Schleicher & Schuell) following the manufacturer's recommeneded procedure. Replicate blots were prehybridized and hybridized with cDNA probes made by nick translation of the purified cDNA inserts from plasmid pIn 2-1, pIn 2-2-3, and pIn 5-2. Slot blots were washed as described in Example 1 and exposed to Kodak X-OMAT XAR-5 film for 24 hours at -80° C. using a single Du Pont Lightning Plus intensifying screen. Film was developed using a Kodak X-OMAT film processor. The abililty of a chemical to induce the mRNA encoded by the three inducible genes was evaluated in one of two ways. Qualitative evaluation was performed by direct visual comparison of the autoradiographic signal intensities on the films for the hybridization of each probe to the different RNA samples. Quantitative evaluation was performed by cutting each slot containing hybridized RNA from the blot, immersing it in 2 ml of Du Pont ECONOFLUOR® scintillation cocktail and counting the radioactivity in each slot in a scintillation counter. The net amount of radioactivity hybridizing to N-(aminocarbonyl)-2-chlorobenzenesulfonamide-treated RNA after subtraction of radioactivity hybridizing to untreated RNA is presented in Table 15.

[2] = tested on: petunia P6.1 gene (P6 RNA); assay: Northern / RNAse protection analysis of P6 RNA in roots of chemically treated petunia; assay type: in vivo, Petunia (Mitchell)
Description: Petunia (Mitchell) seeds were germinated in soil and allowed to grow for one month under standard greenhouse conditions. Plants were transferred to a hydroponic growth apparatus in a greenhouse using foam plugs to support the plants. These plugs were then placed in holes in a wooden bDard and placed over a stainless steel sink containing 0.5× Hoagland's solution. The solution was aerated using standard aquarium pumps, and was changed weekly. After one month of hydroponic growth, plants were transferred to stainless steel trays containing either fresh 0.5 × Hoagland's or 0.5× Hoagland's containing 0.2 g per liter of N-(aminocarbonyl)-2-chlorobenzenesulfonamide. Root tissue was harvested after six hours of treatment.
Ten μg (2 mg/ml) of total RNA from control and N-(aminocarbonyl)-2-chlorobenzenesulfonamide-treated roots was denatured by adding 10 μl of deionized formamide, 3.5 μl formaldehyde, 4 μl 5× MEN buffer (40 mM MOPS pH 7.0, 10 mM sodium acetate, 1 mM EDTA) and incubating at 65° C. for 15 minutes. […] RNA was stained in the presence of 10 mM sodium phosphate pH 6.8 and 1 μg/ml acridine orange for 30 minutes. The gel was then desrained in 10 mM sodium phosphate for 30 minutes, and the RNA was visualized on a UV transilluminator, photographed, and blotted to nitrocellulose (Millipore HAWP). To do this, Whatman 3MM paper was placed below the gel on a glass plate so that the ends of the paper extended into 20× SSC. A sheet of nitroccllulose which had been prewet with 2× SSC was placed on top of the gel followed by a layer of Whatman 3MM, then a stack of paper towels 10 cm high. A glass plate and weight were then placed on top of the stack. Following an overnight transfer, the filter was rinsed briefly in 2× SSC, air dried, and baked in vacuo for 2 hours at 80° C.
The filters were prehybridized for 5 hours in plastic dishes at 42° C. using the hybridization buffer described earlier. Plasmid p6.1 was nick-translated by combining 1 μg of DNA with 5 μl 10× buffer (0.5M Tris-HCl pH 8.0, 0.1M MgSO4, 10 mM DTT and 0.5 mg/ml BSA), 5 μl 0.3 uM d(AGT)TP, 5 μl ^32 P-dCTP (Amersham, 10 mCi/ml, 400 Ci/mmole), 1 μl DNA polymerase 1 (5 U/μl, Boehringer-Mannheim), and 1 μl of 0.1 μg/ml DNAse 1 in a total volume of 50 μl. […] The reaction was then incubated for 5 minutes at 70° C., and labelled DNA was separated from unincorporated nucleotides by Sephadex® G-50 column chromatography. The prehybridization solution was removed from the bag and replaced with hybridization solution containing nick-translated plasmid P6.1 DNA at a concentration of 1×10^6 cpm/ml. […] Filters were washed twice with 2× SSC, 0.1% SDS at 42° C. followed by two washes in 0.1× SSC, 0.1%SDS at 60° C.
RNA probes complementary to the coding strands in both P644 and P645 were synthesized in the following reaction: 50 uCi ^32 P-UTP, 2 μl 5× transcription buffer (200 mM Tris-HCl pH 7.5, 30 mM MgCl2, 10 mM spermidine), 0.5 μl 0.2M DTT, and 0.5 μl of either T3 polymerase (plasmid P645) or T7 polymerase (plasmid P644). Incubation was carried out at 40° C. for 1 hour. The DNA template was hydrolyzed for 15 minutes at 37° C. by addition of 30 μl H2 O, 1 μl RNAsin, 2,5 μl vanadyl ribonucleoside complex, 6 μl 5× transcription buffer and 1 μl DNAse 1 (1 mg/ml) to the transcription reaction. The reaction was extracted with an equal volume of phenol:chloroform (1:1 v/v). The RNA was precipitated once with ethanol in the presence of ammonium acetate and once with ethanol in the presence of sodium acetate. The pellets were dissolved in 25 μl of TE. Ten μg of RNA from untreated and N-(aminocarbonyl)-2-chlorobenzenesulfonamide-treated plants were mixed with 1×10^6 cpm of each of the two probes in 30 ul of hybridization buffer (40 mM PIPES pH 6.7, 0.4M NaCl, 1 mM EDTA). […] Single stranded RNA was selectively digested by adding 300 μl RNAse A and RNAse T1 to 40 μg/ml and 2 μg/ml respectively in 10 mM Tris-HCl pH 7.5, 5 mM EDTA, and 300 mM NaCl.

[3] = tested on: tobacco leaf pieces (callus formation); assay: Callus formation of leaf pieces from kanamycin-resistant tobacco shoots on selective medium; assay type: cell-based; settings: sixteen kanamycin-resistant shoots, three weeks; 10 ppb chlorsulfuron and/or 100 ppm D5293
Text: Callus formation was scored as plus or minus after three weeks of growth.

[4] = tested on: 2-1 gene (In 2-1 mRNA); assay: RNA slot blot / Northern analysis of 2-1 mRNA in roots of chemically treated corn; assay type: in vivo, corn (Missouri 17); design: In2-1 induction level: key to the marks not given beside the values
Description: Missouri 17 corn seeds were surface sterilized by soaking them in a solution of 10% commercial bleach and 0.1% sodium dodecylsulfate (SDS) for 30 minutes. Seeds were then rinsed thoroughly in a buchner funnel with sterile distilled water and prepared for germination by placing them onto 5-6 layers of moist sterile paper towels in a 8"×10" glass baking tray. The tray was covered with aluminum foil and placed in the dark in a 30° C. incubator for 48-72 hours to allow the seeds to germinate. After germination, seedlings were grown hydroponically in an apparatus consisting of a sheet of 8 mesh stainless steel wire gauze suspended over the top of a 2 liter glass beaker filled with sterile half strength Hoagland's solution (referred to 0.5× Hoagland's) so that the roots extended through the mesh and into the media. The hydroponic apparatus was aerated by introducing humidified air into the bottom of the beaker with a gas diffusing stone commonly used in tropical fish aquariums. The apparatus was covered with a loose-fitting sheet of aluminum foil and placed in a reach-in growth chamber illuminated by both fluorescent and incandescent lamps at an intensity of 4400 lux. Seedlings were grown at 28° C., 75% relative humidity using a 16 hour day/8 hour night cycle. After two days, the foil was removed and plants were grown for an additional 5-6 days. Any 0.5× Hoagland's lost to evaporation was replenished every 2-3 days. […] Plants were then allowed to grow for six additional hours prior to harvest.
A nitrocellulose filter (Schlicher and Schull BA-85) was wetted by soaking it twice for 10 minutes in water, followed by a 10 minute soak in 1M ammonium acetate. The filter was then placed into a Slot Blot apparatus (Schleicher and Schuell, Inc., Keene, N.H. 03431, CAT #SRC072/0). […] Forty pl of denaturation buffer (30% formaldehyde, 100 mM sodium phosphate pH 6.8) were added to each sample and all samples were then incubated at 65° C. for 20-30 minutes and quick-cooled in an ice slurry for 5 minutes. Thirty μl of 4M ammonium acetate were added to each sample and the 150 μl samples were added to slots in the blotting cell with the aid of a 10-15 mm Hg vacuum. The filter was removed from the blotting cell, air dried and baked for 2 hours at 70° C. in vacuo.
The filter was cut into six pieces such that each piece had one slot cox.raining RNA from each of the three treatments described above. One of the filter pieces was incubated with 10 ml of prehybridization buffer (50% deienized formamide, 5× SSC, 5× Denhardt's, 100 μg/ml denatured calf thymus DNA, 20 μg/ml homopoly(A), 40 mM sodium phosphate pH 6.8 and 0.5% BSA) in a heat-sealable bag for 6 hours at 42° C. with occasional mixing. The filter piece was then hybridized with nick-translated pIn 2-1. This was performed by discarding the prehybridization solution from the bag and replacing it with 2.5 ml of hybridization buffer (50% deionized formamide, 5× SSC, 100 μg/ml denatured calf thymus DNA, 20 μg/ml homopoly(A) and 40 mM sodium phosphate, pH 6.8) containing 1.25×10^7 cpm of nick translated 2-1 plasmid described above. Nick-translated plasmid was denatured by boiling for 10 minutes followed by quick-cooling on ice. The filter was then hybridized overnight at 42° C. with occasional mixing.

[5] = hydroponic application, 100 ppm
[6] = hydroponic treatment, corn roots
[7] = hydroponic 200 mg/l, sampled at 2, 4, 6 and 22 hours, roots

hybridization of P6.1 probe to root RNA (Northern blot) ([2]; hydroponic 0.2 g per liter, six hours, petunia roots): hybridized to an 800 bp message
time at which P6 RNA reached maximum levels [2, 7]: ≤ 6 h
time at which P6 RNA was detectable [2, 7]: ≤ 2 h
SMILES: NC(=O)NS(=O)(=O)c1ccccc1Cl
In2-2 induction level [1, 5]: +++++
hybridization of pIn 2-2 to root RNA (Northern blot) [1, 6]: present only in RNA from the roots
hybridization of pIn 2-2 to root RNA (slot blot) [1, 6]: hybridizes strongly
RNAse protection of P6.1 probes by root RNA ([2]; petunia roots, treated vs untreated plants): Protected fragments of 110 bp were observed in induced but not control RNA
Callus formation (shoots whose leaf pieces formed callus / shoots tested) [3]: 0/16
hybridization of pIn 2-1 to root RNA (RNA slot blot) ([4]; hydroponic 0.2 g/liter, six hours, corn roots): strongly hybridized
In2-1 induction level [4, 5]: +++++
hybridization of pIn 2-1 to root poly(A)+ RNA (Northern blot) [4, 6]: single intense hybridization signal
